Key:
Test in all cases: relative viability (nuclei count vs DMSO), 5 days (fraction); higher = more cells survive
HCC-827 = system: HCC-827
Method in brief: (§1)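 After 5 days of treatment, lung cancer cells in 1536-well plates were fixed and stained in a single step (final 0.05% Triton X-100, 1% formaldehyde, 1 ug/ml Hoechst) and their nuclei counted on 4× images. Treatment had been applied by pin tool the day after seeding as one drug alone or as a fixed anchor-drug dose with five library-drug doses (not always all listed) in √10 steps. Relative viability is the nuclei count of treated wells divided by that of vehicle wells, and values are medians of duplicate plates.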

HCC-366 = system: HCC-366
Method in brief: as §1

LK-2 = system: LK-2
Method in brief: as §1

EKVX = system: EKVX
Method in brief: as §1

LU99A = system: LU99A
Method in brief: as §1

NCI-H1650 = system: NCI-H1650
Method in brief: as §1

NCI-H1755 = system: NCI-H1755
Method in brief: as §1

NCI-H1734 = system: NCI-H1734
Method in brief: as §1

NCI-H1648 = system: NCI-H1648
Method in brief: as §1

LC-2-ad = system: LC-2-ad
Method in brief: as §1

RERF-LC-KJ = system: RERF-LC-KJ
Method in brief: as §1

NCI-H661 = system: NCI-H661
Method in brief: as §1

201T = system: 201T
Method in brief: as §1

HCC-15 = system: HCC-15
Method in brief: as §1

NCI-H2347 = system: NCI-H2347
Method in brief: as §1

HCC-78 = system: HCC-78
Method in brief: as §1

NCI-H441 = system: NCI-H441
Method in brief: as §1

COR-L 105 = system: COR-L 105
Method in brief: as §1

COR-L23 = system: COR-L23
Method in brief: as §1

NCI-H1944 = system: NCI-H1944
Method in brief: as §1

NCI-H1915 = system: NCI-H1915
Method in brief: as §1

BEN = system: BEN
Method in brief: as §1

PC-3 [JPC-3] = system: PC-3 [JPC-3]
Method in brief: as §1

SW 900 = system: SW 900
Method in brief: as §1

Oc1nc(-c2ccc(C(F)(F)F)cc2)nc2c1CSCC2 [XAV939] + O=C(CCCCCCC(=O)Nc1ccccc1)NO [Vorinostat] (partner 1 µM)
relative viability (HCC-827; first compound 0.08 µM): 0.872
relative viability (HCC-827; first compound 0.253 µM): 0.867
relative viability (HCC-827; first compound 0.8 µM): 0.803
relative viability (HCC-827; first compound 2.53 µM): 0.686
relative viability (HCC-366; first compound 0.08 µM): 0.398
relative viability (HCC-366; first compound 0.253 µM): 0.25
relative viability (HCC-366; first compound 0.8 µM): 0.293
relative viability (HCC-366; first compound 2.53 µM): 0.189
relative viability (LK-2; first compound 0.08 µM): 0.371
relative viability (LK-2; first compound 0.253 µM): 0.325
relative viability (LK-2; first compound 0.8 µM): 0.251
relative viability (LK-2; first compound 2.53 µM): 0.24
relative viability (EKVX; first compound 0.08 µM): 0.816
relative viability (EKVX; first compound 0.8 µM): 0.678
relative viability (EKVX; first compound 2.53 µM): 0.423
relative viability (LU99A; first compound 0.08 µM): 0.454
relative viability (LU99A; first compound 0.253 µM): 0.598
relative viability (LU99A; first compound 0.8 µM): 0.507
relative viability (LU99A; first compound 2.53 µM): 0.43
relative viability (NCI-H1650; first compound 0.08 µM): 0.909
relative viability (NCI-H1650; first compound 0.253 µM): 0.524
relative viability (NCI-H1650; first compound 0.8 µM): 0.391
relative viability (NCI-H1650; first compound 2.53 µM): 0.525
relative viability (NCI-H1755; first compound 0.08 µM): 0.783
relative viability (NCI-H1755; first compound 0.253 µM): 0.729
relative viability (NCI-H1755; first compound 0.8 µM): 0.74
relative viability (NCI-H1755; first compound 2.53 µM): 0.602
relative viability (NCI-H1734; first compound 0.08 µM): 0.98
relative viability (NCI-H1734; first compound 0.253 µM): 0.835
relative viability (NCI-H1734; first compound 0.8 µM): 0.757
relative viability (NCI-H1734; first compound 2.53 µM): 0.803
relative viability (NCI-H1648; first compound 0.253 µM): 0.522
relative viability (NCI-H1648; first compound 0.8 µM): 0.315
relative viability (NCI-H1648; first compound 2.53 µM): 0.285
relative viability (LC-2-ad; first compound 0.08 µM): 0.735
relative viability (LC-2-ad; first compound 0.253 µM): 0.689
relative viability (LC-2-ad; first compound 0.8 µM): 0.705
relative viability (LC-2-ad; first compound 2.53 µM): 0.567
relative viability (RERF-LC-KJ; first compound 0.08 µM): 0.707
relative viability (RERF-LC-KJ; first compound 0.253 µM): 0.609
relative viability (RERF-LC-KJ; first compound 0.8 µM): 0.643
relative viability (RERF-LC-KJ; first compound 2.53 µM): 0.368
relative viability (NCI-H661; first compound 0.08 µM): 0.807
relative viability (NCI-H661; first compound 0.253 µM): 0.674
relative viability (NCI-H661; first compound 0.8 µM): 0.777
relative viability (NCI-H661; first compound 2.53 µM): 0.777
relative viability (201T; first compound 0.08 µM): 1.07
relative viability (201T; first compound 0.253 µM): 0.794
relative viability (201T; first compound 0.8 µM): 0.832
relative viability (201T; first compound 2.53 µM): 0.779
relative viability (HCC-15; first compound 0.08 µM): 0.824
relative viability (HCC-15; first compound 0.253 µM): 0.742
relative viability (HCC-15; first compound 0.8 µM): 0.837
relative viability (HCC-15; first compound 2.53 µM): 0.692
relative viability (NCI-H2347; first compound 0.08 µM): 0.609
relative viability (NCI-H2347; first compound 0.253 µM): 0.496
relative viability (NCI-H2347; first compound 0.8 µM): 0.593
relative viability (NCI-H2347; first compound 2.53 µM): 0.414
relative viability (HCC-78; first compound 0.08 µM): 0.526
relative viability (HCC-78; first compound 0.253 µM): 0.453
relative viability (HCC-78; first compound 0.8 µM): 0.443
relative viability (HCC-78; first compound 2.53 µM): 0.415
relative viability (NCI-H441; first compound 0.08 µM): 1.02
relative viability (NCI-H441; first compound 0.253 µM): 0.822
relative viability (NCI-H441; first compound 0.8 µM): 1.09
relative viability (NCI-H441; first compound 2.53 µM): 0.782
relative viability (COR-L 105; first compound 0.08 µM): 0.85
relative viability (COR-L 105; first compound 0.253 µM): 0.659
relative viability (COR-L 105; first compound 0.8 µM): 0.719
relative viability (COR-L 105; first compound 2.53 µM): 0.65
relative viability (COR-L23; first compound 0.08 µM): 0.443
relative viability (COR-L23; first compound 0.253 µM): 0.472
relative viability (COR-L23; first compound 0.8 µM): 0.483
relative viability (COR-L23; first compound 2.53 µM): 0.39
relative viability (NCI-H1944; first compound 0.08 µM): 0.55
relative viability (NCI-H1944; first compound 0.253 µM): 0.625
relative viability (NCI-H1944; first compound 0.8 µM): 0.508
relative viability (NCI-H1944; first compound 2.53 µM): 0.354
relative viability (NCI-H1915; first compound 0.08 µM): 0.603
relative viability (NCI-H1915; first compound 0.253 µM): 0.51
relative viability (NCI-H1915; first compound 0.8 µM): 0.5
relative viability (NCI-H1915; first compound 2.53 µM): 0.498
relative viability (BEN; first compound 0.08 µM): 0.556
relative viability (BEN; first compound 0.253 µM): 0.587
relative viability (BEN; first compound 0.8 µM): 0.514
relative viability (BEN; first compound 2.53 µM): 0.418
relative viability (PC-3 [JPC-3]; first compound 0.253 µM): 0.76
relative viability (PC-3 [JPC-3]; first compound 0.8 µM): 0.769
relative viability (PC-3 [JPC-3]; first compound 2.53 µM): 0.816
relative viability (SW 900; first compound 0.253 µM): 0.528
relative viability (SW 900; first compound 0.8 µM): 0.494
relative viability (SW 900; first compound 2.53 µM): 0.373
